These molecules were tested on asexual P. falciparum 3D7 parasites (assay: P. falciparum growth inhibition assay with LDH activity readout (Assay 1)). Details: 3D7 strain, 72 h incubation, LDH activity read by absorbance at 650 nm.
Format: cell-based, Plasmodium falciparum
Description: A modified version of the assay described in Gamo, F. J., Sanz, L. M., Vidal, J., de Cozar, C., Alvarez, E., Lavandera, J. L., Vanderwall, D. E., Green, D. V., Kumar, V., Hasan, S., Brown, J. R., Peishoff, C. E., Cardon, L. R., Garcia-Bustos, J. F., Nature, 465 (2010) 305-310 (Gamo et al.) was used to assess the activity of compounds against asexual P. falciparum 3D7 parasites. Compounds were pre-dispensed in 384-well plates, RPMI/AlbuMAX growth media was added and P. falciparum inoculated. Plates were incubated for 72 h and then frozen at −80° C. overnight. LDH activity was quantified with the modified cofactor 3-acetylpyridine adenine dinucleotide (APAD) (Sigma Aldrich) by measuring absorbance of the tetrazolium indicator nitro blue tetrazolium (NBT) (Sigma Aldrich) at 650 nm.
An inoculum of synchronous P. falciparum (3D7 strain) parasitized red blood cells (PRBC) at 0.7% parasitaemia and 2% haematocrit in RPMI-1640, 5% AlbuMAX, 2% D-sucrose, 0.3% glutamine and 150 μM hypoxanthine was used for the assay.
Compound master plates (384-well) were prepared by a 10 pt serial dilution of compounds, from 1 mM to 50.8 nM, in columns 3-12 and 13-22. DMSO was dispensed into columns 1 and 23 of the compound master plate to be used as the positive growth control (100% viability). […] Intermediate compound dilution plates were prepared by dispensing 1 μl from each well of the compound master plate into 11.5 μl of RPMI/AlbuMAX growth media. Duplicate assay plates (384-well) were then prepared by dispensing 0.5 μL of compound from the intermediate dilution plates into 9.5 μl of RPMI/AlbuMAX growth media. The parasite inoculum (30 μL) was dispensed into the assay plates containing compounds using a Multidrop dispenser (Thermo Scientific) such that the final assay volume was 40 μL and final compound concentration was 1 μM-0.05 nM (the volume of compound addition can be adjusted to the preferred and agreed screening concentration). The final DMSO concentration was 0.1% (ideally 0.2% to limit toxicity to parasites), but this is dependent on volume of compound DMSO stock solution that can be supplied. Plates were incubated at 37° C. for 72 h in an atmosphere of 5% CO2, 5% O2, […].
After 72 h of incubation, plates were frozen at −80° C. overnight and then thawed at room temperature for at least 4 h. To evaluate LDH activity, 45 μL of freshly made reaction mix (174 mM sodium L-lactate (Sigma Aldrich), 214 μM 3-acetyl pyridine adenine dinucleotide (APAD) (Sigma Aldrich), 270 μM nitro blue tetrazolium chloride (NBT) (Sigma Aldrich), 4.35 U/mL diaphorase (from Clostridium kluyveri) (Sigma Aldrich), 0.7% Tween 20, 100 mM Tris-HCl pH 7.5) was dispensed using a Multidrop dispenser (Thermo Scientific). Plates were shaken to ensure mixing and absorbance at 650 nm was monitored using a Perkin Elmer Envision plate reader after 30 min of incubation at room temperature. Data were normalized to percent growth inhibition using positive and negative controls, and analysed using TIBCO Spotfire software.
P. falciparum 3D7 strain was grown as described in Assay 1, at 37° C. for 72 hours. The culture was frozen at −80° C. overnight. Cultures were thawed at room temperature for at least 4 hours and the reaction mixture described in Assay 1 was made in order to measure the possible direct inhibition of LDH by the following compounds, assayed as above in Assay 1.

Question: Which IC50 does the source give for `N=C1NC(c2ccc(F)cc2)(C2CCCCC2)C(=O)N1Cc1ccc(C(F)(F)F)c(C(=O)N2Cc3nccnc3C2)c1` (centres unmarked) [Compound 4] here?
Answer: Its IC50 is 9.7 nM.

Question: How did the IC50 turn out when `CC(=O)N1CCN(C(=O)c2cc(F)cc(CN3C(=N)NC(c4ccccc4)(c4ccccc4)C3=O)c2)CC1` [Compound 1] was run?
Answer: The IC50 was 4.5 nM.

Question: For `N=C1NC(C[C@@H]2CCCO2)(c2ccccc2)C(=O)N1Cc1ccc(C(F)(F)F)c(C(=O)N2Cc3nccnc3C2)c1` (some centres unmarked) [Compound 2], which IC50 is on record?
Answer: The IC50 was 5.8 nM.

Question: How did the IC50 turn out when `CC(C)CC[C@]1(c2ccccc2)NC(=N)N(Cc2ccc(C(C)(C)C)c(C(=O)NCc3cccnc3)c2)C1=O` [Compound 11] was run?
Answer: Its IC50 is 172 nM.

Question: `CC(C)CC[C@]1(c2ccccc2)NC(=N)N(Cc2ccc(C(F)(F)F)c(C(=O)N3CC(O)C(F)C3)c2)C1=O` (some centres unmarked) [Compound 3] was tested. Which IC50 did it give?
Answer: Its IC50 is 9.6 nM.

Source: patent US20210379020A1, “COMPOUNDS FOR THE TREATMENT OF MALARIA” (Merck Sharp & Dohme Corp., priority 2016, published 2021)
